For 19 molecules, TGI and GI50 results are on record in PubChem BioAssay (NCI).

Common to all, as to assay: inhibition of tumour cell growth, NCI panel, 48 h
Assay [1] deals with HOP-62 NSCLC.
Assay [2] relates to A549 NSCLC.
For assay [3], the system named is NCI-H522 lung.
Assay [4] deals with SNB-75 CNS.
Assay [5] concerns SF-268 CNS.
The subject of assay [6] is OVCAR-8 ovarian.
Assay [7] deals with RXF 393 renal.
Assay [8] deals with M14 melanoma.
Assay [9] relates to MDA-MB-435.
The test system of assay [10] is HL-60(TB) leukemia.

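Briefly, cells in 96-well plates were exposed to five compound concentrations for 48 h, and endpoints were estimated by linear interpolation. Here, GI50 denotes the concentration required for 50% inhibition of growth. TGI denotes the concentration required for complete inhibition of growth.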 A value given as a limit tells only on which side of the number the result lay.

In the case of `C=Cn1c([N+](=O)[O-])cnc1/C=C/c1ccc(C(=O)OCCN2CCOCC2)cc1`, the TGI in assay [1], in assay [2], in assay [3], in [4], in [5] and in [6] was more than 100 µM throughout. Besides, the TGI in assay [7], in assay [8] and in [9] was more than 100 µM each time.
`O=C1CC/C(=C/COc2cc(=O)oc3ccccc23)O1`: the GI50 in assay [1] is 14.3 µM; in assay [2], 16.4 µM; in assay [3], 1.73 µM; in assay [4], 1.58 µM; in assay [5], 16.2 µM; in assay [6] it was 11.7 µM. Also, the GI50 was 6.9 µM in assay [7], 2.48 µM in assay [8] and 7.11 µM in assay [9]. Besides, the TGI in assay [1] stood at 31.1 µM; in [2] it was 30.8 µM; in assay [3], 4.36 µM; in [4], 11.8 µM; in [5], 51.7 µM; in assay [6], 27.7 µM. The TGI in assay [7] is 21 µM; in assay [8], 13 µM; in [9] it was 22.1 µM.
With `NC(CSSCC(N)C(=O)O)C(=O)O` (configuration not stated), the GI50 in [1], in assay [2], in assay [4], in assay [5], in [6] and in [10] was more than 100 µM throughout. Further, the GI50 in [7], in assay [8] and in assay [9] was more than 100 µM each time. In addition, the TGI in assay [1], in [2], in assay [4], in assay [5], in assay [6] and in assay [10] was more than 100 µM in each case. For the same molecule, the TGI in assay [7], in assay [8] and in [9] was more than 100 µM each time.
As for `CN(CCCCCl)P(=O)(OCc1ccc([N+](=O)[O-])o1)OCC1OC(n2cnc([N+](=O)[O-])c2N)C(O)C1O` (configuration not stated), the GI50 in [1], in assay [2], in [3], in assay [4], in assay [5] and in assay [6] was more than 100 µM each time. Further, the GI50 in assay [10], in assay [7] and in [9] was more than 100 µM throughout. The TGI in assay [1], in assay [2], in assay [3], in [4], in [5] and in [6] was more than 100 µM each time. Moreover, the TGI in assay [10], in [7] and in [9] was more than 100 µM each time.
Consider `CCCCNc1ccc(Nc2ccccc2)cc1`, for which the GI50 is 14.4 µM in assay [1]; 4.38 µM in [2]; 8.46 µM in [4]; 13.3 µM in [5]; 2.05 µM in assay [10]; 6.3 µM in assay [8]. Moreover, the GI50 in [9] was 3.29 µM. Moreover, the TGI in assay [1] is 71.4 µM; in assay [2] it was 52.9 µM; in assay [4], 61.9 µM; in assay [5], more than 100 µM; in assay [10], 5.35 µM; in assay [8], 31.3 µM. The molecule also showed a TGI in assay [9] of 24.3 µM.
Turning to `CCC(C)C(=O)OCC(=O)c1ccc(-c2ccccc2)cc1` (configuration not stated), the TGI in assay [1] is more than 100 µM; in assay [2] it was more than 100 µM; in [3] it was 74.9 µM; in assay [4], more than 100 µM; in assay [5], more than 100 µM; in assay [6], more than 100 µM. Moreover, the TGI in [10], in assay [8] and in [9] was more than 100 µM in each case.
Take `Cc1nc2cc(Nc3nc(Nc4ccc(F)cc4)nc(N4CCOCC4)n3)ccc2n1Cc1ccccc1`: the GI50 in assay [1] was 9.06 µM; in assay [2], 3.2 µM; in assay [3] it was 4.1 µM; in [4], 2.73 µM; in assay [5], 5.41 µM; in assay [6] it was 4.34 µM. In addition, the values for the GI50 in assay [10], in assay [8] and in [9] were 2.07 µM, 3.16 µM and 3.95 µM, respectively. For the same molecule, the TGI in [1] was found to be 24 µM; in assay [2], 14.2 µM; in assay [3] it was 18.9 µM; in [4] it was 20.4 µM; in assay [5] it was 49.2 µM; in assay [6] it was 23.6 µM. Moreover, the TGI was found to be 4.73 µM in assay [10], 8.59 µM in assay [8] and 15.9 µM in assay [9].
For the molecule `O=[N+]([O-])c1cc([N+](=O)[O-])c(Cl)cc1Cl`, the GI50 in assay [1] was 1.68 µM; in assay [2], 1.64 µM; in assay [4] it was 1.51 µM; in assay [5], 1.64 µM; in [6] it was 1.27 µM; in assay [10] it was 0.456 µM. In addition, the results for the GI50 in assay [7], in assay [8] and in [9] were 1.68 µM, 1.73 µM and 1.61 µM, respectively. For the same molecule, the TGI in assay [1] was 3.27 µM; in assay [2], 3.27 µM; in assay [4] it was 2.92 µM; in assay [5], 3.13 µM; in assay [6] it was 2.91 µM; in assay [10], 2.7 µM. Moreover, the TGI worked out at 3.09 µM in [7], 3.59 µM in assay [8] and 3.22 µM in assay [9].
For `CCCCOC1OC(COC(=O)C(C)C)C(OC(=O)C(C)C)C(O)C1OC1OC(C)C(OC(=O)CCC)C(OC(=O)C(C)C)C1O` (configuration not stated), the GI50 in [1] is 14.3 µM; in assay [2], 13.6 µM; in assay [3], 19.1 µM; in assay [4] it was 17.6 µM; in assay [5] it was 12.2 µM; in assay [6], 19.6 µM. For the same molecule, the GI50 is 18.1 µM in assay [10], 8.41 µM in assay [7] and 14.5 µM in assay [9]. Besides, the TGI was 27.4 µM in assay [1]; 26.5 µM in assay [2]; 39.6 µM in assay [3]; 31.4 µM in assay [4]; 29 µM in [5]; 37.8 µM in assay [6]. For the same molecule, the TGI in assay [10] was determined as 42.9 µM; in assay [7], 31.2 µM; in assay [9], 27.6 µM.
Take `COc1ccc(-c2csc(NC(=O)CN3CCN(c4cc5c(cc4F)c(=O)c(C(=O)O)cn5C4CC4)CC3)n2)cc1`: the GI50 in [1] was 3.59 µM; in assay [2], 3.47 µM; in [3], 3.48 µM; in assay [4], 3.31 µM; in assay [5], 4.28 µM; in [6] it was 3.2 µM. Besides, the GI50 is 4.97 µM in [7], 4.1 µM in assay [8] and 3.39 µM in assay [9]. Further, the TGI in assay [1] is 26.1 µM; in assay [2], more than 100 µM; in assay [3], more than 100 µM; in assay [4], 34.2 µM; in assay [5], more than 100 µM; in [6], more than 100 µM. For the same molecule, the TGI is 27.7 µM in assay [7], more than 100 µM in assay [8] and more than 100 µM in assay [9].
For `COc1cc2oc3c(c(=O)c2c(O)c1/C=C/C(C)C)C(C=C(C)C)Oc1cc(O)ccc1-3` (configuration not stated), the TGI in [2] stood at 28.8 µM; in assay [3], 32.3 µM; in assay [4], 29.4 µM; in [5] it was 36.8 µM; in assay [6] it was 30.8 µM; in [10], 56.1 µM. For the same molecule, the figures for the TGI in assay [8] and in assay [9] were 27.3 µM and 30.8 µM, respectively.
`COc1ccc(CCN2CCC(CN(C)Cc3cnn(-c4ccccc4)c3)CC2)cc1`: the GI50 was 15.4 µM in [1]; 19.4 µM in assay [2]; 4.54 µM in assay [3]; 8.83 µM in assay [4]; 14.2 µM in [5]; 16.5 µM in [6]. For the same molecule, the GI50 in assay [10] is 20 µM; in [7], 7.74 µM; in assay [9], 2.54 µM. The TGI in assay [1] was determined as 35.6 µM; in [2], 48.9 µM; in [3], 19 µM; in assay [4], 21.2 µM; in [5] it was 34.7 µM; in assay [6] it was 37.5 µM. In addition, the TGI in assay [10] is 48.4 µM; in assay [7], 24.1 µM; in assay [9], 6.8 µM.
As to `CC1(C)Cc2c(Br)c(Br)c(Br)c(OCC(O)CN3CCN(c4ccccn4)CC3)c2O1` (configuration not stated), the GI50 in [1] is 13.2 µM; in [3], 16.8 µM; in assay [4] it was 16.3 µM; in assay [5], 12.9 µM; in [6], 20.9 µM; in [10] it was 2.8 µM. The GI50 in [8] is 13.3 µM; in assay [9] it was 14.3 µM. In addition, the TGI in assay [1] was found to be 27.7 µM; in assay [3], 35.5 µM; in [4], 39 µM; in assay [5], 39.6 µM; in assay [6], 45.3 µM; in assay [10] it was 11.1 µM. For the same molecule, the TGI in [8] worked out at 29.7 µM; in assay [9], 33.6 µM.
Take `Nc1nc(N)c2nc3c(nc2n1)CCCCCCCCCC3`: the GI50 is 4.47 µM in [1]; 0.407 µM in assay [2]; 5.35 µM in assay [4]; 2.1 µM in assay [5]; 1.99 µM in assay [6]; 1.95 µM in [10]. The GI50 was 4.12 µM in [7], 0.544 µM in assay [8] and 0.577 µM in [9]. In addition, the TGI in assay [1] was more than 100 µM; in assay [2] it was more than 100 µM; in assay [4], 51.2 µM; in [5] it was more than 100 µM; in assay [6], more than 100 µM; in [10] it was more than 100 µM. The TGI in [7], in assay [8] and in [9] was more than 100 µM each time.
For the molecule `O=[N+]([O-])c1cc2no[n+]([O-])c2cc1N1CCCCC1`, the TGI was found to be 31.3 µM in assay [1]; 42.8 µM in [2]; 9.8 µM in [4]; 41.2 µM in assay [5]; 5.74 µM in assay [6]; 5.29 µM in assay [10]. Moreover, the values for the TGI in [7], in [8] and in assay [9] were 3.29 µM, 7.19 µM and 9.44 µM, respectively.
Regarding `CC(=O)O[C@H]1CC[C@@]2(C)C(=C/C(=N/OCCN3CCCC3)[C@H]3[C@@H]4CC[C@H](OC(C)=O)[C@@]4(C)CC[C@@H]32)C1`, the GI50 in [1] is 29.2 µM; in [2], 63.3 µM; in [3], 47.5 µM; in [4] it was 68 µM; in assay [5] it was more than 100 µM; in [6], more than 100 µM. The GI50 is 23.3 µM in [10], 17.6 µM in assay [8] and 53 µM in assay [9]. The TGI in assay [1], in assay [2], in assay [3], in assay [4], in assay [5] and in assay [6] was more than 100 µM throughout. Moreover, the TGI in assay [10] was 57.7 µM; in [8], 37.2 µM; in assay [9], more than 100 µM.
Take `CC(=O)Nc1n[n+]([O-])c2cc(C)ccc2[n+]1[O-]`: the TGI was determined as 11.4 µM in [1]; 12.3 µM in assay [2]; 5.53 µM in assay [3]; 12 µM in assay [4]; 19.7 µM in assay [5]; 16.3 µM in assay [6]. Further, the values for the TGI in assay [7], in assay [8] and in assay [9] were 22.6 µM, 8.3 µM and 20.8 µM, respectively.
For `CCN1C(=NCCO)NS(=O)(=O)c2ccccc21`, the TGI in assay [1], in assay [2], in assay [3], in assay [5], in [6] and in assay [10] was more than 100 µM in each case. Besides, the TGI in assay [7], in [8] and in [9] was more than 100 µM throughout.
In the case of `Cl.Fc1c[c-]c(-c2ccccn2)c(F)c1.[Pt].c1ccc([PH+](C[PH+](c2ccccc2)c2ccccc2)c2ccccc2)cc1`, the GI50 was 0.206 µM in assay [2]; 0.183 µM in [4]; 0.303 µM in [6]; 0.233 µM in [10]; 0.251 µM in assay [7]; 0.314 µM in assay [8]. The GI50 in assay [9] is 0.233 µM. Besides, the TGI came to 1.34 µM in assay [2]; 0.781 µM in assay [4]; 1.73 µM in assay [6]; 0.67 µM in assay [10]; 0.741 µM in [7]; 1.02 µM in [8]. This molecule also returned a TGI in assay [9] of 0.574 µM.
